The CheMixHub viscosity set

Assay: xn = mol fraction of the nth substance listed

Oc1ccccc1 + c1ccccc1
Conditions | viscosity [mPa·s]
293.15 K, 101 kPa, x1 = 0.0507 | 0.683
293.15 K, 101 kPa, x1 = 0.0831 | 0.724
293.15 K, 101 kPa, x1 = 0.1719 | 0.865
293.15 K, 101 kPa, x1 = 0.2846 | 1.126
293.15 K, 101 kPa, x1 = 0.3763 | 1.401
293.15 K, 101 kPa, x1 = 0.4837 | 1.911
293.15 K, 101 kPa, x1 = 0.5924 | 2.642
293.15 K, 101 kPa, x1 = 0.7038 | 3.811
293.15 K, 101 kPa, x1 = 0.8043 | 5.35
298.15 K, 101.33 kPa, x1 = 0.083 | 0.6592
298.15 K, 101.33 kPa, x1 = 0.181 | 0.8516
298.15 K, 101.33 kPa, x1 = 0.2 | 0.841
298.15 K, 101.33 kPa, x1 = 0.239 | 0.9218
298.15 K, 101.33 kPa, x1 = 0.279 | 1.037
298.15 K, 101.33 kPa, x1 = 0.37 | 1.157
298.15 K, 101.33 kPa, x1 = 0.478 | 1.696
298.15 K, 101.33 kPa, x1 = 0.5 | 1.711
298.15 K, 101.33 kPa, x1 = 0.522 | 1.849
298.15 K, 101.33 kPa, x1 = 0.619 | 2.54
298.15 K, 101.33 kPa, x1 = 0.658 | 2.783
298.15 K, 101.33 kPa, x1 = 0.692 | 3.172
298.15 K, 101.33 kPa, x1 = 0.762 | 3.936
298.15 K, 101.33 kPa, x1 = 0.786 | 4.424
323.15 K, 101.33 kPa, x1 = 0.2 | 0.568
323.15 K, 101.33 kPa, x1 = 0.5 | 0.968

COCCOCCOC + CCOC(=O)CCC(=O)OCC
viscosity [mPa·s], 101.33 kPa
Conditions | x1 = 0.1002 | x1 = 0.2023 | x1 = 0.3012 | x1 = 0.4033 | x1 = 0.5032 | x1 = 0.6024 | x1 = 0.7034 | x1 = 0.801 | x1 = 0.9025
298.15 K | 2.198 | 2.009 | 1.843 | 1.681 | 1.535 | 1.412 | 1.296 | 1.187 | 1.077
303.15 K | 1.951 | 1.792 | 1.65 | 1.513 | 1.386 | 1.283 | 1.184 | 1.086 | 0.994
308.15 K | 1.737 | 1.599 | 1.476 | 1.355 | 1.251 | 1.163 | 1.082 | 0.997 | 0.92
313.15 K | 1.559 | 1.438 | 1.33 | 1.229 | 1.139 | 1.061 | 0.989 | 0.919 | 0.852
318.15 K | 1.406 | 1.299 | 1.206 | 1.115 | 1.034 | 0.969 | 0.908 | 0.849 | 0.792

CCCCCCn1cc[n+](C)c1.F[B-](F)(F)F + CC(C)CO
101 kPa
Conditions | viscosity [mPa·s]
293.15 K, x1 = 0.5606 | 49.75
303.15 K, x1 = 0.8327 | 84.55
308.15 K, x1 = 0.1004 | 4.975

COCCOCCOC + CCCCCCCCCCCCCC
viscosity [mPa·s], 101.33 kPa
Conditions | x1 = 0.0987 | x1 = 0.2023 | x1 = 0.302 | x1 = 0.4002 | x1 = 0.5033 | x1 = 0.594 | x1 = 0.6981 | x1 = 0.7958 | x1 = 0.8986
298.15 K | 1.835 | 1.672 | 1.55 | 1.448 | 1.345 | 1.275 | 1.187 | 1.113 | 1.044
308.15 K | 1.503 | 1.38 | 1.29 | 1.205 | 1.122 | 1.068 | 0.996 | 0.938 | 0.888
318.15 K | 1.248 | 1.153 | 1.07 | 1.009 | 0.945 | 0.902 | 0.848 | 0.8 | 0.76

CCCCCCN + CCCCN(CCCC)CCCC
viscosity [mPa·s], 101 kPa
Conditions | x2 = 0.1032 | x2 = 0.1936 | x2 = 0.3936 | x2 = 0.4924 | x2 = 0.6079 | x2 = 0.782 | x2 = 0.9153
303.15 K | 0.7562 | 0.7958 | 0.8857 | 0.9301 | 0.9836 | 1.063 | 1.125
313.15 K | 0.6517 | 0.6853 | 0.7606 | 0.7985 | 0.8436 | 0.9122 | 0.9652

COCCOCCOC + CCCCO
viscosity [mPa·s], 101 kPa
Conditions | x1 = 0.1051 | x1 = 0.2018 | x1 = 0.3019 | x1 = 0.4029 | x1 = 0.5049 | x1 = 0.6017 | x1 = 0.7049 | x1 = 0.7983 | x1 = 0.9023
298.15 K | 1.866 | 1.542 | 1.304 | 1.178 | 1.103 | 1.048 | 1.019 | 0.998 | 0.989
308.15 K | 1.48 | 1.252 | 1.074 | 0.983 | 0.924 | 0.883 | 0.863 | 0.849 | 0.842
318.15 K | 1.186 | 1.028 | 0.906 | 0.827 | 0.782 | 0.762 | 0.74 | 0.73 | 0.723

COC(=O)OC + CCCCCC
Conditions | viscosity [mPa·s]
298.15 K, 101 kPa, x1 = 0.0961 | 0.2912

COCCOCCOC + CCCCCCO
101 kPa
Conditions | viscosity [mPa·s]
293.15 K, x1 = 0.04448 | 4.368
293.15 K, x1 = 0.105 | 3.527
293.15 K, x1 = 0.1942 | 2.714
293.15 K, x1 = 0.3018 | 2.148
293.15 K, x1 = 0.4004 | 1.796
293.15 K, x1 = 0.4511 | 1.674
293.15 K, x1 = 0.6059 | 1.383
293.15 K, x1 = 0.6997 | 1.285
293.15 K, x1 = 0.7893 | 1.204
293.15 K, x1 = 0.9139 | 1.128
293.15 K, x1 = 0.9331 | 1.117
303.15 K, x1 = 0.04385 | 3.29
303.15 K, x1 = 0.09867 | 2.69
303.15 K, x1 = 0.1894 | 2.153
303.15 K, x1 = 0.2974 | 1.72
303.15 K, x1 = 0.4047 | 1.435
303.15 K, x1 = 0.4914 | 1.28
303.15 K, x1 = 0.6035 | 1.141
303.15 K, x1 = 0.7106 | 1.046
303.15 K, x1 = 0.7884 | 0.996
303.15 K, x1 = 0.9193 | 0.945
303.15 K, x1 = 0.942 | 0.937
313.15 K, x1 = 0.04597 | 2.536
313.15 K, x1 = 0.09846 | 2.162
313.15 K, x1 = 0.1996 | 1.706
313.15 K, x1 = 0.2989 | 1.412
313.15 K, x1 = 0.4011 | 1.226
313.15 K, x1 = 0.4983 | 1.089
313.15 K, x1 = 0.5998 | 0.991
313.15 K, x1 = 0.7041 | 0.916
313.15 K, x1 = 0.7993 | 0.866
313.15 K, x1 = 0.9072 | 0.825
313.15 K, x1 = 0.942 | 0.815

CCCCCCN + Cc1ccccc1
303.15 K, 101 kPa
Conditions | viscosity [mPa·s]
x2 = 0.1238 | 0.6558
x2 = 0.2561 | 0.6124
x2 = 0.3598 | 0.5834
x2 = 0.4481 | 0.5588
x2 = 0.5709 | 0.5327
x2 = 0.6774 | 0.5177
x2 = 0.7639 | 0.5072
x2 = 0.8616 | 0.5035
x2 = 0.9319 | 0.5102

Oc1ccccc1 + CS(C)=O
viscosity [mPa·s], 101 kPa
Conditions | x2 = 0.2 | x2 = 0.3 | x2 = 0.4 | x2 = 0.5 | x2 = 0.6 | x2 = 0.7 | x2 = 0.8 | x2 = 0.9
298.15 K | 8.913 | 7.767 | 6.467 | 5.173 | 4.111 | 3.282 | 2.726 | 2.308
308.15 K | 5.87 | 5.328 | 4.618 | 3.826 | 3.127 | 2.579 | 2.192 | 1.902
318.15 K | 4.15 | 3.888 | 3.486 | 2.977 | 2.489 | 2.09 | 1.794 | 1.577

COC(=O)OC + C1CCCCC1
viscosity [mPa·s], 101.33 kPa
Conditions | x1 = 0.101 | x1 = 0.1993 | x1 = 0.3026 | x1 = 0.3999 | x1 = 0.5 | x1 = 0.5996 | x1 = 0.7039 | x1 = 0.8005 | x1 = 0.9028 | x1 = 0.9031
298.15 K | 0.686 | 0.616 | – | 0.535 | 0.52 | 0.507 | 0.499 | 0.502 | 0.515 | –
303.15 K | 0.636 | 0.573 | 0.533 | 0.5 | 0.485 | 0.475 | 0.47 | 0.472 | 0.491 | –
308.15 K | 0.59 | 0.535 | 0.498 | 0.463 | 0.455 | 0.445 | 0.442 | 0.444 | – | 0.457
